This experiment has as its target T1, IL-17A/A (Homo sapiens, UniProt Q16552).
T1 construct: purchased Genscript Z03228
T1 sequence (Q16552 24-155): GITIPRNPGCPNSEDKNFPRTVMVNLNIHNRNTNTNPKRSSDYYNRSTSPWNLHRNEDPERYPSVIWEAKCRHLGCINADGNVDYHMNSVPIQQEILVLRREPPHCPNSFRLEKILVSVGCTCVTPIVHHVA
The experiment is described as follows: IL-17A/A HEK-Blue Cell Assay. It counts as cell-based. The settings on record: HEK-Blue IL-17A reporter cell line, SEAP readout at A630, 20 hours incubation with IL-17A/A, top concentration 10 uM, 1 uM or 0.3 uM; for IC50: read-out: IL-17A/A inhibition (pIC50) (converted).

Each structure is given as a SMILES string.

For `COc1ccc(C(F)(F)C(=O)N[C@H](C(=O)Nc2ccc([C@H](C)[C@@H](NC(=O)c3cnns3)C(=O)N3CCN(C)CC3)cc2F)C2CCCCC2)cn1` [Compound 224], the IC50 was < 0.01 µM.
On the same count and under the same terms, with `CCC(=O)N[C@@H](C(=O)N1CCN(C)CC1)[C@@H](C)c1ccc(NC(=O)[C@@H](NC(=O)C(F)(F)c2cncc(C#N)c2)C2CCCCCC2)c(F)c1` [Compound 261] the figure was < 0.01 µM; with `CCC(=O)N[C@H](Cc1ccc(NC(=O)[C@@H](NC(=O)c2conc2CC)C2CCCCCC2)c(F)c1)C(=O)N1CCN(C)CC1` [Compound 236], 0.01 to 0.1 µM.
As for `CCC(=O)N[C@@H](C(=O)N1CCN(C)CC1)[C@@H](C)c1ccc(NC(=O)C(NC(=O)c2ccnn2CC)C(C)c2ccccc2Cl)c(F)c1` (stereo partly drawn) [Compound 520], the “IL-17A/A inhibition (pIC50)” value is “X1b (compounds were evaluated up to 10 uM and inhibited activity at 10 uM by less than 20%)”.
For the compound `CCC(=O)N[C@H](Cc1ccc(NC(=O)[C@@H](NC(=O)c2coc3ccc(OC)cc23)C2CCCCC2)c(F)c1)C(=O)N1CCN(C)CC1` [Compound 671], the IC50 was 0.1 to 10 µM.
The same measure, in the same setting: with `CC(C)n1nccc1C(=O)N[C@@H](C(=O)N1CCN(C)CC1)[C@@H](C)c1ccc(NC(=O)[C@@H](NC(=O)c2ccnn2C(C)C)[C@H]2CC[C@H](C)CC2)c(F)c1` [Compound 330] the figure was < 0.01 µM.
On the same count and under the same terms, with `C[C@@H](c1ccc(NC(=O)[C@@H](NC(=O)C(F)(F)c2cccc(C#N)c2)C2CCCCC2)cc1)[C@@H](NC(=O)c1cnns1)C(=O)N1CCN(C)CC1` [Compound 301] the figure was < 0.01 µM; with `CCC(=O)N[C@@H](C(=O)N1CCN(C)CC1)[C@@H](C)c1ccc(NC(=O)[C@@H](NC(=O)c2coc3cc(OC)ccc23)C2CCCCC2)c(F)c1` [Compound 255], 0.01 to 0.1 µM.
Still for that read-out and setting: with `CCC(=O)N[C@@H](C(=O)N1CCN(C)CC1(C)C)[C@@H](C)c1ccc(NC(=O)[C@@H](NC(=O)c2ccnn2CC)[C@H]2CC[C@H](C)CC2)c(F)c1` [Compound 431] the figure was < 0.01 µM.
Turning to `CCC(=O)N[C@@H](C(=O)N1CCN(C)CC1)[C@@H](C)c1ccc(NC(=O)C(NC(=O)c2ccnn2CC)C(C)C2CCC(F)(F)CC2)c(F)c1` (single isomer, unassigned) [Compound 591], the “IL-17A/A inhibition (pIC50)” value was “X3b (compounds were evaluated up to 0.3 uM and inhibited activity at 0.3 uM by less than 20%)”.
Consider `CCC(=O)N[C@H](Cc1ccc(NC(=O)[C@@H](NC(=O)c2ccnn2CC)[C@H]2CC[C@H](C)CC2)c(F)c1)C(=O)N1CCN(C)CC1` [Compound 627], for which the IC50 was 0.1 to 10 µM.
On to `CCC(=O)N[C@@H](C(=O)N1CCN(C)CC1)[C@@H](C)c1ccc(NC(=O)[C@@H](NC(=O)Cc2ccc(CC(=O)O)cc2)C2CCCCC2)c(F)c1` [Compound 769], for which the IC50 was 0.1 to 10 µM.
With `CCC(=O)N[C@@H](C(=O)N1CCN(C)CC1)[C@@H](C)c1ccc(NC(=O)[C@@H](NC(=O)c2nonc2CC)C2CCCCCC2)c(F)c1` [Compound 270], the IC50 is < 0.01 µM.
In the case of `CCC(=O)N[C@@H](C(=O)N1CCN(C)CC1)[C@@H](C)c1ccc(NC(=O)[C@@H](NC(=O)c2conc2CC)C2CCCCC2)cc1` [Compound 298], the IC50 was 0.01 to 0.1 µM.
As to `CCC(=O)N[C@H](Cc1ccc(NC(=O)[C@@H](NC(=O)Cc2ccc(=O)[nH]c2)C2CCCCC2)c(F)c1)C(=O)N1CCN(C)CC1` [Compound 778], the “IL-17A/A inhibition (pIC50)” value was “X1b (compounds were evaluated up to 10 uM and inhibited activity at 10 uM by less than 20%)”.
`CCC(=O)N[C@@H](C(=O)N1CCS(=O)(=O)CC1)[C@@H](C)c1ccc(NC(=O)[C@@H](NC(=O)C(F)(F)c2cccc(C#N)c2)C2CCCCCC2)c(F)c1` [Compound 354]: the IC50 is < 0.01 µM.
On to `CCC(=O)N[C@@H](C(=O)N1CCC(C)(O)CC1)[C@@H](C)c1ccc(NC(=O)[C@@H](NC(=O)C(F)(F)c2cccc(C#N)c2)C2CCCCCC2)c(F)c1` [Compound 355], for which the IC50 was < 0.01 µM.
Still for that read-out and setting: with `CCC(=O)N[C@@H](C(=O)N1CCN(C)CC1)[C@@H](C)c1ccc(NC(=O)[C@@H](NC(=O)C(F)(F)c2cncc(C#N)c2)[C@H]2CC[C@H](C)CC2)c(F)c1` [Compound 530] the figure was < 0.01 µM.
`COc1ccc(C(F)(F)C(=O)N[C@H](C(=O)Nc2ccc([C@H](C)[C@@H](NC(=O)c3cnsc3)C(=O)N3CCN(C)CC3)cc2F)[C@H]2CC[C@H](C)CC2)cn1` [Compound 622]: the IC50 is 0.01 to 0.1 µM.
With `CCC(=O)N[C@@H](C(=O)N1CCN(C)CC1)[C@@H](C)c1ccc(NC(=O)C(NC(=O)c2ccnn2CC)C(C)C2CCC(F)(F)CC2)c(F)c1` (single isomer, unassigned) [Compound 606], the IC50 was 0.01 to 0.1 µM.
In the case of `CCC(=O)N[C@H](Cc1ccc(NC(=O)[C@@H](NC(=O)c2ccnn2CC)[C@H]2CC[C@H](C(F)(F)F)CC2)c(F)c1)C(=O)N1CCN(C)CC1` [Compound 732], the “IL-17A/A inhibition (pIC50)” value is “X2a (compounds were evaluated up to 1 uM and did not inhibit activity by >80%, however they showed some activity at 1 uM (less than 80% and more than 20%))”.
Consider `CCC(=O)N[C@@H](C(=O)N1CCN(C)CC1)[C@@H](C)c1ccc(NC(=O)C(NC(=O)C(F)(F)C2CCCCC2)[C@H]2CC[C@H](C)CC2)c(F)c1` (stereo partly drawn) [Compound 419], for which the IC50 is 0.01 to 0.1 µM.
Still for that read-out and setting: with `CCc1nonc1C(=O)N[C@H](C(=O)Nc1ccc([C@H](C)[C@@H](NC(=O)C2(F)CCC2)C(=O)N2CCN(C)[C@H](C)C2)cc1F)[C@H]1CC[C@H](C)CC1` [Compound 505] the figure was 0.01 to 0.1 µM; with `CCC(=O)N[C@H](Cc1ccc(NC(=O)[C@@H](NC(=O)c2ccnn2CC)C2CCCCCC2)c(F)c1)C(=O)N1CCN(C)CC1` [Compound 235], 0.01 to 0.1 µM.
Regarding `CCC(=O)N[C@H](Cc1ccc(NC(=O)[C@@H](NC(=O)C2(c3ccccc3)CC2)C2CCCCC2)c(F)c1)C(=O)N1CCN(C)CC1` [Compound 710], the “IL-17A/A inhibition (pIC50)” value was “X2b (compounds were evaluated up to 1 uM and inhibited activity at 1 uM by less than 20%)”.
The same measure, in the same setting: with `CCC(=O)N[C@@H](C(=O)N1CCN(C)CC1)[C@@H](C)c1ccc(NC(=O)C(NC(=O)c2nonc2CC)C(C)C2CCC(C)CC2)c(F)c1` (single isomer, unassigned) [Compound 584] the entry was “X2b (compounds were evaluated up to 1 uM and inhibited activity at 1 uM by less than 20%)”.
Regarding `CCC(=O)N[C@@H](C(=O)N1CCN(C)CC1)[C@@H](C)c1ccc(NC(=O)C(NC(=O)c2ccnn2CC)C(CC)c2ccc(F)cc2)c(F)c1` (single isomer, unassigned) [Compound 555], the IC50 was < 0.01 µM.
Take `CCC(=O)N[C@H](Cc1ccc(NC(=O)[C@@H](Nc2nccn3nccc23)C2CCCCC2)c(F)c1)C(=O)N1CCN(C)CC1` [Compound 540]: the “IL-17A/A inhibition (pIC50)” value was “X2b (compounds were evaluated up to 1 uM and inhibited activity at 1 uM by less than 20%)”.
With `CCC(=O)N[C@@H](C(=O)N1CCN(Cc2ccccc2)CC1)[C@H](C)c1ccc(NC(=O)[C@@H](NC(=O)c2ccnn2CC)C2CCCCC2)c(F)c1` [Compound 670], the IC50 is 0.1 to 10 µM.
Same read-out and setting: with `CCC(=O)N[C@@H](C(=O)N1CCN(C)CC1)[C@@H](C)c1ccc(NC(=O)[C@@H](NC(=O)c2conc2C(C)C)C2CCCCCC2)c(F)c1` [Compound 268] the figure was < 0.01 µM.
Take `CCC(=O)N[C@H](Cc1ccc(NC(=O)[C@@H](NC(=O)c2ccnn2CC)C2CCCCC2)c(F)c1)C(=O)N1CCNCC1` [Compound 746]: the “IL-17A/A inhibition (pIC50)” value was “X2b (compounds were evaluated up to 1 uM and inhibited activity at 1 uM by less than 20%)”.
With `CCC(=O)N[C@@H](C(=O)N1CCN(C)CC1)[C@@H](C)c1ccc(NC(=O)C(NC(=O)c2nonc2CC)C(C)C2CCC(C)CC2)c(F)c1` (single isomer, unassigned) [Compound 613], the “IL-17A/A inhibition (pIC50)” value was “X2b (compounds were evaluated up to 1 uM and inhibited activity at 1 uM by less than 20%)”.
As for `CCC(=O)N[C@@H](C(=O)N1CCN(C)CC1)C(OC)c1ccc(NC(=O)[C@@H](NC(=O)c2ccnn2CC)[C@H]2CC[C@H](C)CC2)c(F)c1` (single isomer, unassigned) [Compound 614], the IC50 is 0.1 to 10 µM.
On the same count and under the same terms, next, `CCn1nccc1C(=O)N[C@H](C(=O)Nc1ccc(C[C@@H](NC(=O)CC2CC2)C(=O)N2CCN(C)CC2)cc1F)C1CCCCC1` [Compound 650]: 0.1 to 10 µM; `CCC(=O)N[C@@H](C(=O)N1CCN(C)C(C)(C)C1)[C@@H](C)c1ccc(NC(=O)[C@@H](NC(=O)c2nonc2CC)[C@H]2CC[C@H](C)CC2)c(F)c1` [Compound 464]: < 0.01 µM.
The same measure, in the same setting: next, `CCC(=O)N[C@H](Cc1ccc(NC(=O)[C@@H](NC(=O)c2ccnn2CC)C2CCCCC2)c(Cl)c1)C(=O)N1CCN(C)CC1` [Compound 763]: 0.1 to 10 µM; `CCC(=O)N[C@@H](C(=O)N1CCN(C)CC1)[C@@H](C)c1ccc(NC(=O)C(NC(=O)c2nonc2CC)C2CCc3cc(F)ccc32)c(F)c1` (single isomer, unassigned) [Compound 570]: < 0.01 µM; `CCn1nccc1C(=O)N[C@H](C(=O)Nc1ccc(C[C@@H](Nc2ncnc3cnccc23)C(=O)N2CCN(C)CC2)cc1F)C1CCCCC1` [Compound 320]: 0.01 to 0.1 µM.
On the same count and under the same terms, next, `CCn1nccc1C(=O)N[C@H](C(=O)Nc1ccc([C@H](C)[C@@H](NC(=O)C(C)C2CC2)C(=O)N2CCN(C)[C@H](C)C2)cc1F)[C@H]1CC[C@H](C)CC1` (stereo partly drawn) [Compound 434]: < 0.01 µM; `CCn1ncnc1C(=O)N[C@H](C(=O)Nc1ccc([C@H](C)[C@@H](NC(=O)c2cnns2)C(=O)N2CCN(C)CC2)cc1F)[C@H]1CC[C@H](C)CC1` [Compound 410]: 0.01 to 0.1 µM.
Turning to `CC1CCC(C(NC(=O)C(F)(F)c2cccc(C#N)c2)C(=O)Nc2ccc(C(C)C(NC(=O)c3cnns3)C(=O)N3CCN(C)CC3)cc2F)CC1` (stereo not drawn) [Compound 336], the IC50 is < 0.01 µM.
Still for that read-out and setting: with `CCn1nccc1C(=O)N[C@H](C(=O)Nc1ccc([C@H](C)[C@@H](NC(=O)c2cnns2)C(=O)N2CCN(C)CC2)cc1F)C1CCCCCC1` [Compound 337] the figure was < 0.01 µM.
